The values that follow come from paper PMC12595617, “Investigating the potential role of metabolic resistance genes in conferring cross-resistance to pyrethroids and polycyclic aromatic hydrocarbon pollutants in the major malaria vector Anopheles coluzzii” (BMC Genomics, 2025).

As a reminder, the Km is the substrate concentration at which the rate is half of its maximum.

Series [1] relates to all the recombinant P450s used in this study (CYPs 6M2, 6Z2, 6Z3, 9J5, 6P3, 6P4, 6P5, CYP9K1, CYP6P9a). The experiment in a line: In vitro metabolism of PAHs with the whole recombinant P450 panel. Format: in vitro ADME, An. gambiae / An. funestus. Conditions: Anopheles gambiae; Anopheles funestus (CYP6P9a), 2 h, 20 µM, pH 7.4.
Experimental: (§5) To compare the metabolic activity of the microsomes and the recombinant cytochrome P450s towards PAH metabolism assays were conducted side by side as described earlier [38, 43]. The NADPH regeneration mixture (consisting of 0.1 M NADP+, 50mM potassium phosphate buffer, pH 7.4, 1 mM glucose-6-phosphate, 0.25 mM magnesium chloride and 1U/ml glucose-6-phosphate dehydrogenase) was used in the positive replicates. For the negatives, the same buffer with no added NADP + was used. Enzyme-buffer mix comprised of 0.05 µM recombinant P450 or microsome, 0.4 µM cytochrome b5, 50 mM potassium phosphate buffer pH 7.4 and 20 µM of the PAH substrates. To initiate the reactions, regeneration mixture was added to the enzyme-buffer mix in a 1:1 ratio (total of 200 µl) following activation for 5 min at 30 °C and 1200 rpm shaking. The reaction was run for 2 h at 30 °C with 200 rpm shaking. […]
(§6) Using the Agilent HPLC 1200 infinity series, analysis of the PAHs metabolism was conducted. The HPLC conditions consisted of mobile phases of HPLC grade acetonitrile and water in the ratio of 80/20 and detected at a wavelength of 254 nm. […] Percentage depletions for each compound were calculated in both the microsomal and recombinant P450 studies. […]
Series [2] relates to Auyo microsomes. Description: Microsomal P450 activity with model probe substrate DEF, Auyo. Format: biochemical, Anopheles coluzzii. The conditions noted are these: 10 µM DEF, 0.05 µM P450, read for 15 min. As for the experimental part:
(§1) P450 activity was determined in the prepared microsomes from both Auyo and Ngousso strains using diethoxyfluorescein (DEF) as the model fluorogenic substrate using the methods earlier described. Briefly, the enzyme-buffer mix consisted of 0.05 µM of cytochrome P450 (microsomes), 50 mM potassium phosphate buffer, pH 7.4, 0.5 µM cytochrome b5 and 10 µM DEF. To initiate the reactions in a 96-well plates (Thermo Labsystems, Basingstoke, UK), a NADPH ([…]) regeneration mix (consisting of 1mM glucose-6-phosphate, 0.1 M NADP+, 0.25mM magnesium chloride, IU/ml glucose-6-phosphate dehydrogenase and 50 mM potassium phosphate buffer pH 7.4) was added in the positive replicates whereas the same buffer with no NADPH was added in the negative wells. Using the excitation (482 nm) and emission (520 nm) wavelengths of DEF, the […] was read for 15 min, and the relative fluorescence unit per min per picomole of the P450 (RFU/min/pmol of P450) was determined.

In a further series the test system is Ngousso microsomes. The experiment in a line: Microsomal P450 activity with model probe substrate DEF, Ngousso. The conditions noted are these: 10 µM DEF, 0.05 µM P450, read for 15 min. Format: biochemical, Anopheles coluzzii. As for the experimental part:
as §1

Series [3] relates to Auyo microsomes. Description: Fluorene turnover assay using microsomes. Conditions: fluorene 30 µM, run time 15-150 min. Format: in vitro ADME, Anopheles coluzzii. As for the experimental part: Because of the higher percentage of depletion observed in the Auyo microsomal metabolism of fluorene, it was chosen to be analysed further for its turnover and kinetic studies. To understand the turnover rates of the fluorene depletions, reaction run time was varied between 15 and 150 min. Specific points used were 15, 30, 45, 60, 90, 120 and 150 min while the fluorene concentration was maintained at 30 µM in all these time points.

A further series concerns Auyo microsomal P450. Description: in vitro. Format: in vitro ADME, Anopheles coluzzii. As to the method: For the determination of steady-state kinetic parameters, assays were conducted for 30 min with 0.05 µM microsomal P450 while varying the concentrations of fluorene (0–600 µM). Kinetics plot of velocity against the substrate concentrations was made using the least squares non-linear regression in GraphPad Prism 6.03 Software (GraphPad Inc., La Jolla, CA, USA) that fits into the canonical Michaelis-Menten model as previously described for pyrethroid insecticides.

The subject of the next series is recombinant CYP6Z2. As to the method: (§2) The recombinant P450s used in this study were acquired from the enzyme characterization group (ECG) leader, Dr. Mark J.I. Paine of the Vector Biology Department, Liverpool School of Tropical Medicine. All the P450s were expressed from field-resistant populations of An. gambiae except for CYP6P9a, which was expressed from An. funestus. The heterologous expression of the P450s was conducted according to the previously described approaches. Briefly, P450s were expressed by using ompA and pelB signal sequences to direct P450 and An. gambiae CPR (AgCPR), respectively, to the inner membrane of E. coli a functional monooxygenase. The P450 sequences were amplified from cDNA and fused to the ompA signal peptides in simple PCR reactions. This is followed by ligation of the digested fragments into linearized expression vector pCWori+, thereby creating a construct pB13:ompA + 2-P450. Competent JM109 cells were co-transformed with plasmids pB13:ompA + 2-P450 and pACYC-AgCPR for the expression of functional P450 and An. gambiae CPR, respectively. Colonies carrying the two plasmids as confirmed by the colony PCR are used for a 12–14 h starter culture overnight. Typically, 0.2 L cultures were supplemented with 2 mL from the starter cultures and incubated at 37 °C and 200 rpm shaking while the absorbance at 600 nm was being monitored. When the OD reached 0.6–0.8, the cultures were cooled down to 25 °C for 30 min with shaking at 150 rpm. Induction with 1 mM isopropyl β-D-1-thiogalactopyranoside (IPTG) and 0.5 mM 5-aminolaevulinic acid (ALA) was conducted. Determinations of the P450 content and CPR activity were conducted using the procedure of [61] and [60], respectively.
(§3) To compare the metabolic activity of the microsomes and the recombinant cytochrome P450s towards PAH metabolism assays were conducted side by side as described earlier. The NADPH regeneration mixture (consisting of 0.1 M NADP+, 50mM potassium phosphate buffer, pH 7.4, 1 mM glucose-6-phosphate, 0.25 mM magnesium chloride and 1U/ml glucose-6-phosphate dehydrogenase) was used in the positive replicates. For the negatives, the same buffer with no added NADP + was used. Enzyme-buffer mix comprised of 0.05 µM recombinant P450 or microsome, 0.4 µM cytochrome b5, 50 mM potassium phosphate buffer pH 7.4 and 20 µM of the PAH substrates. To initiate the reactions, regeneration mixture was added to the enzyme-buffer mix in a 1:1 ratio (total of 200 µl) following activation for 5 min at 30 °C and 1200 rpm shaking. The reaction was run for 2 h at 30 °C with 200 rpm shaking. To stop the reaction, 200 µl of ice-cold High Performance Liquid Chromatography (HPLC) grade acetonitrile was added, followed by additional shaking for 5 min to precipitate the proteins. The mixture was kept on ice for 10 min before centrifuging at 16,000xg for 20 min. The supernatants were filtered through 0.45 μm PTFE filters (ThermoFisher Scientific, MA, USA) and filtrate transferred to HPLC vials for onward analysis.
(§4) Using the Agilent HPLC 1200 infinity series, analysis of the PAHs metabolism was conducted. The HPLC conditions consisted of mobile phases of HPLC grade acetonitrile and water in the ratio of 80/20 and detected at a wavelength of 254 nm.

The next series deals with recombinant CYP6Z3. As to the method: as §2, §3, §4
The subject of the next series is CYP9K1. Format: in vitro ADME, An. gambiae. The conditions noted are these: Anopheles gambiae, 2 h, 20 µM, pH 7.4.
In the next series the test system is CYP6P4. Format: in vitro ADME, An. gambiae. Conditions: Anopheles gambiae, 2 h, 20 µM, pH 7.4.
For the next series, the system named is CYP9J5. Format: in vitro ADME, An. gambiae. Conditions: Anopheles gambiae, 2 h, 20 µM, pH 7.4.
Series [4] concerns microsomes prepared from pyrethroid-resistant Anopheles coluzzii (Auyo). Conditions: Auyo (field-resistant) larval microsomes, 0.05 µM P450, 20 µM PAH, 2 h, 30 °C, +NADPH vs -NADPH, mean ± SD of three replicates. As for the experimental part: as §3, with “The supernatants were filtered through 0.45 μm PTFE filters (ThermoFisher Scientific, MA, USA) and filtrate transferred to HPLC vials for onward analysis.” left out
as §4

A further series deals with recombinant CYP6P3. The conditions noted are these: recombinant CYP6P3, 0.05 µM P450, 20 µM PAH, 2 h, 30 °C, +NADPH vs -NADPH. As to the method:
as §2, §3, §4

Several values for one entry are separate records, joined by “and”; a condition that tells them apart may be missing. Identical values can stand only once. Like-named read-outs stand apart in the source and are kept apart here.

Experimental for CYP6P4: as §5, §6
Experimental for CYP9J5: as §5, §6

With `c1ccc2ccccc2c1` [naphthalene], the percentage depletion in series [1] is below 10%.

As to `CCOc1ccc2c(c1)Oc1cc(OCC)ccc1C21OC(=O)c2ccccc21` [DEF, diethoxyfluorescein], the DEF activity in the series with Auyo microsomes [2] came to 4.9 RFU/min/pmole P450; with Ngousso microsomes, 4.4 RFU/min/pmole P450.

With `c1ccc2c(c1)Cc1ccccc1-2` [fluorene], the Turnover in the series with Auyo microsomes [3] is 37.016 min⁻¹ and 37.02 min⁻¹. For the same molecule, the Km at 30 min with Auyo microsomal P450 (Anopheles coluzzii) was 58.7 µM. Further, in the series on Auyo microsomal P450 (Auyo microsomes, 0.05 µM microsomal P450, 30 min, fluorene 0–600 µM), the “Catalytic rate (Kcat)” value is 4.196 min⁻¹ and 4.20 ± 0.44 min⁻¹. The same molecule came in with a catalytic efficiency with Auyo microsomal P450 (Auyo microsomes, fluorene) of 0.0715 ± 0.026 min⁻¹ µM⁻¹. In addition, the “metabolic activity (in words)” value with recombinant CYP6Z2 and in the series on recombinant CYP6Z3 was “strong metabolic activity” in each case. The percentage depletion in the series on CYP9K1 amounted to 8.5%; in the series with CYP6P4, 9.3%; in the series with CYP9J5 it was 7.7%.

As for `c1ccc2c(c1)-c1cccc3cccc-2c13` [fluoranthene], the percentage depletion in series [4] was 22.8 ± 5.2%; in the series with recombinant CYP6P3, “more than 40%”. Further, the “metabolic activity (in words)” value in the series on recombinant CYP6Z2 (recombinant CYP6Z2) and in the series on recombinant CYP6Z3 (recombinant CYP6Z3) was “strong metabolic activity” each time.
